Measurements taken from patent US20030199590A1, “Prostaglandin analogues for promotion of hair growth” (priority 2002, published 2003).
Like-named read-outs stand apart in the source and are kept apart here.

Assays:
[1] = biological target: T1, FP receptors (Bos taurus, UniProt P37289); test: FP receptor binding assay ([3H]PGF2α, bovine corpus luteum membranes); details: for IC50: Table 1, [3H]PGF2α, bovine corpus luteum membranes, free acid form; for Ki: Table 2, FP receptor binding
T1 construct: Washed total particulate bovine corpus luteum membranes; from tissue; host or cells: bovine corpus luteum membranes
T1 sequence (P37289 whole entry): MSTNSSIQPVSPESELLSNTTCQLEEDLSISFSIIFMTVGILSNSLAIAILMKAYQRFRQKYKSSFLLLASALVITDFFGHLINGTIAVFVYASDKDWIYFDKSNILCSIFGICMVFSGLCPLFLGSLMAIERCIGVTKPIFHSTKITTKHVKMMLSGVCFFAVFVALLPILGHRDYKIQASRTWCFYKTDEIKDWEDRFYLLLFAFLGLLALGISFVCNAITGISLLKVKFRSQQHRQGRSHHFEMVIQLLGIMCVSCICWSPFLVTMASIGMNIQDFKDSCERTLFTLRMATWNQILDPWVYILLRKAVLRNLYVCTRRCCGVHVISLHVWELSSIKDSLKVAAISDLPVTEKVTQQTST
Method: Non-specific binding was defined with 1-10 μM unlabeled PGF2α or fluprostenol. The assays were terminated by vacuum filtration (using Whatman GF/B glass fiber filter previously soaked in 0.3% polyethyleneimine) and the data analyzed by a non-linear, iterative, curve-fitting computer program.

[2] = biological target: T2, FP receptors (Swiss 3T3 cells expressing FP receptors) (Mus musculus, UniProt P43117); test: FP receptor-mediated phosphoinositide turnover assay; type: cell-based; details: for Emax: Swiss-3T3, 1 h, efficacy relative to standard full agonist (100%), read-out: FP functional (%) agonistic activity; for EC50: [3H]-IPs in Swiss 3T3 cells; for % response: efficacy relative to standard
T2 construct: endogenous in cells; host or cells: Swiss 3T3 cells
T2 sequence (P43117 whole entry): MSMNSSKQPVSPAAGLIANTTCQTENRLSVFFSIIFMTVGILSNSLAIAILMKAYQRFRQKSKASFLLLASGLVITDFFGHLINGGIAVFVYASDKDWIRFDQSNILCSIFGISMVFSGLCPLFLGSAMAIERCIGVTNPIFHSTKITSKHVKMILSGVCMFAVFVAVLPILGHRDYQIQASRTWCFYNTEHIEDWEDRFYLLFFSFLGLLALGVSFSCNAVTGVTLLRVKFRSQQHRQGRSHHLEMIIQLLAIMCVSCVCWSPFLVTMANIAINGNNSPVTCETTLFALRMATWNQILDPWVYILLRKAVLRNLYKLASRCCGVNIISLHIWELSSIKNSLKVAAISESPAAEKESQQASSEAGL
Method: FP receptor-mediated phosphoinositide turnover assay: [^3H]Inositol phosphates ([^3H]-IPs) produced by agonist-mediated activation of phospholipase C in Swiss 3T3 cells expressing FP receptors were quantified as follows. Confluent 3T3 cells were exposed to 1.0-1.5 μCi [^3H]-myo-inositol (18.3 Ci/mmol) in 0.5 ml DMEM for 24-30 hours at 37° C. Then cells were rinsed once with DMEM/F-12 containing 10 mM LiCl, and the agonist stimulation experiment was performed in 0.5 ml of the same medium to facilitate accumulation of [^3H]-IPs. Cells were exposed to the agonist or solvent for 60 min at 37° C. (triplicate determinations), followed by aspiration of the medium and immediate addition of 1 ml of ice-cold 0.1 M formic acid. The plates were kept cold and then frozen. Samples frozen up to one week were thawed prior to chromatographic separation of radiolabeled components. The cell lysates (0.9 ml) were loaded on columns packed with approximately 1 ml AG 1-X8 anion exchange resin. The elution procedure consisted of a wash with 10 ml of H2O, then 8 ml of 50 mM ammonium formate, and finally 4 ml of 1.2 M ammonium formate with 0.1 M formic acid, which was collected in a scintillation vial. To this eluate was added 15 ml of scintillation fluid and the total [^3H]-IPs determined by scintillation counting on a beta-counter. Data were analyzed by the sigmoidal fit function of the Origin Scientific Graphics software (Microcal Software, Northampton, Mass.) to determine agonist potency (EC50 value) and efficacy, relative to the standard cloprostenol.

[3] = Table 1, read-out: FP functional EC50

| SMILES | IC50 [1] | Emax ([2]; Table 1) | EC50 [2, 3] | Ki [1] | EC50 ([2]; Table 2, read-out: EC50) | % response ([2]; Table 2) |
| --- | --- | --- | --- | --- | --- | --- |
| O=C(O)CCC/C=C\C[C@H]1CC[C@@H](O)[C@@H]1/C=C/[C@@H](O)COc1cccc(Cl)c1 [Compound 6] | 10 nM | 100% | 2.6 nM | – | – | – |
| O=C(O)CCC/C=C\C[C@H]1[C@@H](O)CO[C@@H]1/C=C/[C@@H](O)COc1cccc(Cl)c1 [Compound 15] | 890 nM | 88% | 58 nM | – | – | – |
| O=C(O)CCC/C=C\C[C@@H]1[C@@H](/C=C/[C@H](F)COc2cccc(Cl)c2)[C@H](O)C[C@@H]1O [Compound 62] | 182 nM | 76% | 81 nM | – | – | – |
| O=C(O)CCC/C=C\C[C@@H]1[C@@H](CC[C@@H](F)COc2cccc(C(F)(F)F)c2)[C@H](O)C[C@@H]1O [Compound 24] | 230 nM | 85% | 12.5 nM | – | – | – |
| O=C(O)CCCCCC[C@@H]1[C@@H](/C=C/[C@H](O)COc2cccc(Cl)c2)[C@H](O)C[C@@H]1O [Compound 87] | – | – | – | 730 nM | 38 nM | 88% |
| O=C(O)CCC/C=C/C[C@@H]1[C@@H](/C=C/[C@@H](O)COc2cccc(C(F)(F)F)c2)[C@H](O)C[C@@H]1O [Compound 89] | – | – | – | 260 nM | 41 nM | 96% |
| O=C(O)CCC/C=C\C[C@H]1CC[C@@H](O)[C@@H]1/C=C/[C@@H](O)CCc1ccccc1 [Compound 1] | 96 nM | 87.6% | 19.6 nM | – | – | – |
| O=C(O)CCCCCC[C@@H]1[C@@H](/C=C/[C@@H](O)COc2cccc(Cl)c2)[C@H](O)C[C@@H]1O [Compound 86] | – | – | – | 93 nM | 4.92 nM | 100% |
| O=C(O)CCC/C=C\C[C@@H]1[C@@H](CC[C@@H](F)COc2ccccc2)[C@H](O)C[C@@H]1O [Compound 45] | 52 nM | 79% | 9.5 nM | – | – | – |
| O=C(O)CCC/C=C\C[C@H]1[C@@H](O)CO[C@@H]1/C=C/[C@H](O)COc1cccc(C(F)(F)F)c1 [Compound 27] | 15000 nM | 43% | 889 nM | – | – | – |
| O=C(O)CCC/C=C\C[C@H]1[C@@H](O)CO[C@@H]1/C=C/[C@H](O)COc1ccc(F)cc1 [Compound 36] | 4600 nM | 75% | 1240 nM | – | – | – |
| O=C(O)CCC/C=C\C[C@H]1[C@@H](O)CO[C@@H]1/C=C/[C@H](O)COc1cccc(Cl)c1 [Compound 14] | 7300 nM | 67% | 194 nM | – | – | – |
| O=C(O)CC/C=C\CC[C@H]1[C@@H](O)CO[C@@H]1/C=C/[C@H](O)COc1cccc(Cl)c1 [Compound 54] | 818 nM | 71% | 249 nM | – | – | – |
| O=C(O)CCC/C=C\C[C@H]1[C@@H](O)CO[C@@H]1/C=C/[C@@H](O)COc1cccc(C(F)(F)F)c1 [Compound 26] | 1800 nM | 74% | 187 nM | – | – | – |
| O=C(O)CC/C=C\CC[C@@H]1[C@@H](CC[C@@H](F)COc2ccccc2)[C@H](O)C[C@@H]1O [Compound 74] | 690 nM | 67% | 8.8 nM | – | – | – |
| O=C(O)CCC/C=C\C[C@@H]1[C@@H](CC[C@@H](F)COc2cccc(Cl)c2)[C@H](O)C[C@@H]1O [Compound 17] | 26 nM | 64% | 9 nM | – | – | – |
| O=C(O)CCC/C=C\C[C@@H]1[C@@H](OC[C@@H](O)COc2cccc(Cl)c2)[C@H](O)C[C@@H]1O [Compound 65] | 540 nM | 91% | 57.8 nM | – | – | – |
| O=C(O)CCCCCC[C@H]1C(=O)CO[C@@H]1/C=C/[C@@H](O)COc1ccccc1 [Compound 20] | 9700 nM | 67% | – | – | – | – |
| O=C(O)CCC/C=C\C[C@@H]1[C@@H](OC[C@H](O)COc2cccc(Cl)c2)[C@H](O)C[C@@H]1O [Compound 66] | 4340 nM | 56% | 503 nM | – | – | – |
| O=C(O)CCCCCC[C@@H]1[C@@H](CC[C@@H](O)COc2cccc(Cl)c2)[C@H](O)C[C@@H]1O [Compound 85] | – | – | – | 220 nM | 23 nM | 100% |
| O=C(O)CCC/C=C\C[C@@H]1[C@@H](/C=C/[C@@H](F)COc2ccccc2)[C@H](O)C[C@@H]1O [Compound 57] | 267 nM | 104% | 3.8 nM | – | – | – |
| O=C(O)CCC/C=C\C[C@@H]1[C@@H](/C=C/[C@@H](F)COc2cccc(Cl)c2)[C@H](O)C[C@@H]1O [Compound 63] | 238 nM | 84% | 2.2 nM | – | – | – |
